Reference: US11214540B2, “Compositions for treating neurodegenerative diseases” (COGNITION THERAPEUTICS, INC., priority 2017, dated 2022)
Read-outs that look alike come from different tables or passages of the source.

Key:
log P = type: physicochemical; details: for logP: octanol/water
How it was run: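 Ratio of un-ionized compound concentrations between octanol and water, with aqueous pH set so the un-ionized form predominates. Value given as the log of the octanol/water ratio.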

[1] = Mouse liver microsome (MLM) stability; type: in vitro ADME; details: microsomal stability in mouse liver microsomes (MLM)
Description: A first pharmacokinetic study was performed in microsomes of mice mouse liver microsomes, MLM).
Microsomal stability experiments and plasma stability experiments were performed to determine metabolic and hepatic stability of candidate compounds.

[2] = tested on: Abeta oligomer-induced membrane trafficking deficits in primary hippocampal neurons; test: Membrane Trafficking/Exocytosis (MTT) assay, Abeta oligomer effect on neurons; type: cell-based, rat; details: membrane trafficking, read-out: EC50 Abeta;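 note: compound potency for inhibiting the Abeta oligomer effect on exocytosis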
How it was run: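 Rat E18 hippocampal neurons cultured 3 weeks received compound (100 uM to 0.001 nM), then vehicle or Abeta 1-42 oligomers (3 μM total Abeta), for 1-24 h at 37 °C. MTT was added for 1 h, and formazan vesicle exocytosis was quantified by automated imaging with DAPI toxicity check. Tukey-Kramer comparisons were made with N=4.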

[3] = molecular target: Sigma-2 receptors on membranes from rat cerebral cortex (Rattus norvegicus (Rat), UniProt Q5U3Y7); test: Competitive Radioligand Binding Assay 1, Sigma-2 binding ([3H]DTG displacement with (+)pentazocine mask); details: sigma-2 receptor affinity; read-out: S2 Ki
Chain of Sigma-2 receptors on membranes from rat cerebral cortex (Q5U3Y7 whole entry): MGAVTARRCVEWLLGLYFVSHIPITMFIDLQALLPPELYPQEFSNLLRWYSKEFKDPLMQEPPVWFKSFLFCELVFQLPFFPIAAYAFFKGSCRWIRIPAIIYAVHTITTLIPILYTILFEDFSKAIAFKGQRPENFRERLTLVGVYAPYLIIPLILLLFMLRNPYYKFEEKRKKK
Description: Using the same protocol, some compounds for which membrane trafficking data are given in Table 1 were tested for recognition of sigma-2 receptor. Certain compounds preferentially bind to the sigma-2 receptor.
(§1) For Sigma-1 binding, various concentrations of test compounds from 100 μM to 1 nM were used to displace 8 nM [3H](+)pentazocine from endogenous receptors on Jurkat cell membranes (Ganapathy M E et al. 1991, J Pharmacol. Exp. Ther. 289:251-260). 10 μM Haloperidol was used to define non-specific binding. […] (Bowen W D, et al. 1993, Mol. Neuropharmcol 3:117-126). 10 μM Haloperidol was used to define non-specific binding. Reactions were terminated by rapid filtration through Whatman GF/C filters using a Brandel 12R cell harvester followed by two washes with ice-cold buffer. Radioactivity on the dried filter discs was measured using a liquid scintillation analyzer (Tri-Carb 2900TR; PerkinElmer Life and Analytical Sciences). The displacement curves were plotted and the Ki values of the test compounds for the receptor subtypes were determined using GraphPad Prism (GraphPad Software Inc., San Diego, Calif.). The percentage specific binding was determined by dividing the difference between total bound (disintegrations per minute) and nonspecific bound (disintegrations per minute) by the total bound (disintegrations per minute).
Affinities for Sigma-1 and Sigma-2 receptors are typically obtained from published studies using cerebral tissue homogenates with [3H](+)pentazocine to measure displacement from Sigma-1 receptors and [3H] 1,3-Di-(2-tolyl)guanidine in the presence of 300 nM (+)pentazocine to measure displacement from Sigma-2 receptors.

[4] = molecular target: Sigma-1 receptors on Jurkat cell membranes (Homo sapiens (Human), UniProt Q99720); test: Competitive Radioligand Binding Assay 1, Sigma-1 binding ([3H](+)pentazocine displacement); details: sigma-1 receptor affinity; read-out: S1 Ki
Chain of Sigma-1 receptors on Jurkat cell membranes (Q99720 whole entry): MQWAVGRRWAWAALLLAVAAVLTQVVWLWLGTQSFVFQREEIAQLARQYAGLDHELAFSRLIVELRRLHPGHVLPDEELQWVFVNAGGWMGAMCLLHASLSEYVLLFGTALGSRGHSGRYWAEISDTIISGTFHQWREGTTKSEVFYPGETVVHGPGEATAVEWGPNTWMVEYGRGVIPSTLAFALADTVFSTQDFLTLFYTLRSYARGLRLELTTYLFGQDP
Description: Certain compounds were tested for interaction with several receptors by blocking the binding or action of their agonists or antagonists. Some compounds were tested to see whether they interact directly with known cellular receptor or signaling proteins. Compounds can be tested for the ability to displace binding of known agonists or antagonists of a given human receptor that was overexpressed in cell lines or isolated from tissue. Compounds can also be tested for the ability to block downstream signaling induced by agonists or antagonists of a given human receptor. Compounds can be tested for action at 100 known receptors, and it is desirable that specific activity will occur at only a small subset of CNS-relevant receptors.
as §1, with “minute). […]” for “minute).”

potassium channel hERG = potassium channel hERG (Homo sapiens (Human), UniProt Q12809); test: In vitro testing for hERG inhibition; type: biochemical; details: in vitro toxicity potassium channel hERG
Chain of potassium channel hERG (Q12809 whole entry): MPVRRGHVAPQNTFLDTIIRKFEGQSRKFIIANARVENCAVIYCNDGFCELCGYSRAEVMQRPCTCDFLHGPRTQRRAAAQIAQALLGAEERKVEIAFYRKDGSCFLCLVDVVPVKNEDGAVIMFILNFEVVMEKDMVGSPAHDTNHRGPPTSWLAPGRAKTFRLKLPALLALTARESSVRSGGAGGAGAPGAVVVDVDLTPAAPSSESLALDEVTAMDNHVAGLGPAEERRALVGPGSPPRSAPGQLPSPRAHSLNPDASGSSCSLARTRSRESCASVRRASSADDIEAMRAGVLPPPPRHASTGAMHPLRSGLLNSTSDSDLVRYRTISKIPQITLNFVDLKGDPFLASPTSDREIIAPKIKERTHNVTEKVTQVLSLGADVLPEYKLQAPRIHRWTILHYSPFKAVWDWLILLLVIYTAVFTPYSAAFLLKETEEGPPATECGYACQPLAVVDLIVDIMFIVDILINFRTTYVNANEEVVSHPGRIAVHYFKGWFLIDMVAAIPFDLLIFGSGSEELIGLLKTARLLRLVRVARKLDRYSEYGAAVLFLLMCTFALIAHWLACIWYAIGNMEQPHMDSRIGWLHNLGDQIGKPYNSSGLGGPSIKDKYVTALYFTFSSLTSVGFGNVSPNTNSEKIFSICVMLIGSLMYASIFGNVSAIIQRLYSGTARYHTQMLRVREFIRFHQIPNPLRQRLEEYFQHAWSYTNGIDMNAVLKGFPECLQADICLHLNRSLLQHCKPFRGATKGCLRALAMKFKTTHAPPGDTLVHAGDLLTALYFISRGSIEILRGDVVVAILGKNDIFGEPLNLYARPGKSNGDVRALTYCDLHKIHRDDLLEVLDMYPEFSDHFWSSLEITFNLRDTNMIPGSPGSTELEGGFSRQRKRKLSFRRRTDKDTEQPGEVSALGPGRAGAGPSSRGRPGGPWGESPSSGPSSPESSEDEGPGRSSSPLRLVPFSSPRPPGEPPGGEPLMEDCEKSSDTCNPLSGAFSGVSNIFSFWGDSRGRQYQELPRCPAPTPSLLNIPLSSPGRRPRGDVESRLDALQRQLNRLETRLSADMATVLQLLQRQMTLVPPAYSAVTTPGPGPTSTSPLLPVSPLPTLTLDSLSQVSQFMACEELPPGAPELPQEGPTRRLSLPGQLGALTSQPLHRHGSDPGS
Description: In vitro testing for hERG inhibition was performed in a standard assay (See: Haverkamp W, Breithardt G, Carnm A J, Janse M J, Rosen M R, Antzelevitch C, Escande D, Franz M, Malik M, Moss A and Shah R. (2000) Eur Heat J 21 (15); 1216-31).

[5] = Rattus norvegicus, Hippocampal neuron

SMILES | log P (log P) | MLM T1/2 [1] | EC50 [2] | Ki [3] | Ki [4] | IC50 (potassium channel hERG) | logP (log P) | EC50 [2, 5]
CC(C)=CC(CC(C)(C)c1ccc(C)cc1)N1CCC2(CC1)COC2 (stereo not shown) [Compound 107] | 5.21 | 3.5 min | 20000 nM |  |  |  |  | 
COc1ccc(CCC(C=C(C)C)N2CCCCC2)cc1 (stereo not shown) [Compound 103] | 4.76 | 1.1 min | 20000 nM |  |  |  |  | 
CC(C)=CC(CC(C)(C)c1ccc(F)cc1)N1CCC(O)CC1 (stereo not shown) [Compound 79] | 4.12 | 74 min | 1900 nM | 940 nM | 1200 nM | 29000 nM |  | 
COc1ccc(C(C)(C)CC(C=C(C)C)N(C)CC2CCOCC2)cc1 (stereo not shown) [Compound 113] | 4.92 | 8.2 min | 20000 nM |  |  |  |  | 
CC(C)=CC(CCc1ccc(Cl)cc1)N1CCC(C2CCOCC2)CC1 (stereo not shown) [Compound 105] | 5.72 | 1.3 min | 20000 nM |  |  |  |  | 
CC1(O)CCN(CCC(C)(C)c2ccc(C(F)(F)F)cc2)CC1 [Example 14] |  |  |  | 3 nM | 1.9 nM | 18000 nM | 3.71 | 3700 nM
COc1ccc(C(C)(C)CC(C=C(C)C)NC2CCOCC2)cc1 (stereo not shown) [Compound 99] | 4.08 | 7.4 min | 20000 nM |  |  |  |  | 
CC(C)=CC(CC(C)(C)c1ccc(C(F)(F)F)cc1)N1CCC(CO)CC1 (stereo not shown) [Compound 35] | 5.31 | 60 min | 20000 nM | 39 nM | 56 nM | 13400 nM |  | 
CC(C)=CC(CC(C)(C)c1ccc(C(F)(F)F)cc1)N1CCC(O)CC1 (stereo not shown) [Compound 38] | 4.85 | 84 min | 4500 nM | 42 nM | 190 nM | 16200 nM |  | 
CC(C)=CC(CCc1ccc(Cl)cc1)N1CCCCC1 (stereo not shown) [Compound 96] | 5.52 | 6.2 min | 1600 nM |  |  |  |  | 
CC(C)(CCN1CCC(O)CC1)c1ccc(C(F)(F)F)cc1 [Example 17] |  |  |  | 5.1 nM | 1.3 nM | 11000 nM | 3.43 | 2240 nM
CC(C)=CC(CCc1ccc(C)cc1)N1CCCCC1 (stereo not shown) [Compound 94] | 5.43 | 1.8 min | 20000 nM |  |  |  |  | 
CC(C)=CC(CC(C)(C)c1ccc(Cl)cc1)N1CCC(C2CCOCC2)CC1 (stereo not shown) [Compound 11] | 6.31 | 26, min. | 3000 nM | 2.2 nM |  | 1500 nM |  | 
CC(C)=CC(CCc1ccc(Cl)cc1)N1CCOCC1 (stereo not shown) [Compound 95] | 4.45 | 1.5 min | 20000 nM |  |  |  |  | 
COc1ccc(C(C)(C)CC(C=C(C)C)N2CCC3(CCOCC3)CC2)cc1 (stereo not shown) [Compound 98] | 5.11 | 1.7 min | 20000 nM |  |  |  |  | 
COCCOCCC1CCN(C(C=C(C)C)CC(C)(C)c2ccc(C(F)(F)F)cc2)CC1 (stereo not shown) [Compound 40] | 6.28 |  | 830 nM | 44 nM | 170 nM | 9600 nM |  | 
COC1CCN(CCC(C)(C)c2ccc(Cl)cc2)CC1 [Compound 10] | 3.8 |  | 1260 nM | 2.1 nM | 0.7 nM | 11000 nM |  | 
COc1ccc(C(C)(C)CC(C=C(C)C)N(C)CCCC2CCOCC2)cc1 (stereo not shown) [Compound 110] | 5.73 | 2.6 min | 20000 nM |  |  |  |  | 
CC(C)=CC(CC(C)(C)c1ccc(Cl)cc1)N(C)CC1CCOCC1 (stereo not shown) [Compound 111] | 5.68 | 6.8 min | 20000 nM |  |  |  |  | 

SMILES | log P (log P) | MLM T1/2 [1] | EC50 [2] | Ki [3] | Ki [4] | IC50 (potassium channel hERG) | logP (log P) | EC50 [2, 5]
CC(C)=CC(CC(C)(C)c1ccc(C)cc1)NCCC1CCOCC1 (stereo not shown) [Compound 101] | 5.57 | 1.8 min | 9600 nM |  |  |  |  | 
COc1ccc(C(C)(C)CC(C=C(C)C)N(C)C2CCOCC2)cc1 (stereo not shown) [Compound 108] | 4.46 | 7.3 min | 20000 nM |  |  |  |  | 
COC1CCN(C(C)CC(C)(C)c2ccc(C(F)(F)F)cc2)CC1 (stereo not shown) [Compound 6] | 4.49 |  | > 15000 nM | 1 nM | 0.3 nM | 750 nM |  | 
CC(C)=CC(CC(C)(C)c1ccc(C)cc1)N(C)C1CCOCC1 (stereo not shown) [Compound 109] | 5.13 | 5.4 min | 20000 nM |  |  |  |  | 
CC(C)=CC(CC(C)(C)c1ccc(C)cc1)N(C)CC1CCOCC1 (stereo not shown) [Compound 112] | 5.59 | 4.9 min |  |  |  |  |  | 
COc1ccc(CCC(C=C(C)C)N2CCOCC2)cc1 (stereo not shown) [Compound 104] | 3.69 | 1.3 min | 20000 nM |  |  |  |  | 
CC(C)=CC(CCc1ccc(C)cc1)N1CCOCC1 (stereo not shown) [Compound 93] | 4.36 | 3.4 min | 20000 nM |  |  |  |  | 
CCOC1CCN(C(C=C(C)C)CC(C)(C)c2ccc(F)cc2)CC1 (stereo not shown) [Compound 59] | 5.12 |  | 250 nM | 160 nM | 600 nM | 73000 nM |  | 
COc1ccc(C(C)(C)CC(C=C(C)C)NCCCC2CCOCC2)cc1 (stereo not shown) [Compound 106] | 5.35 | 3.9 min | 20000 nM |  |  |  |  | 
CC(C)=CC(CCc1ccc(C)cc1)N1CCC(C2CCOCC2)CC1 (stereo not shown) [Compound 114] | 5.63 | 1.8 min |  |  |  |  |  | 
COc1ccc(C(C)(C)CC(C=C(C)C)NCCC2CCOCC2)cc1 (stereo not shown) [Compound 102] | 4.9 | 1.5 min | 20000 nM |  |  |  |  | 
CC(C)=C[C@@H](CC(C)(C)c1ccc(C(F)(F)F)cc1)N1CCC[C@@H]1CO [Compound 83] | 5.31 |  | 3800 nM | 1000 nM | 1000 nM | 14000 nM |  | 
CC(CC(C)(C)c1ccc(F)cc1)N1CCC(CO)CC1 (stereo not shown) [Compound 19] | 3.57 |  | < 250 nM | 6 nM | 2.2 nM | 37000 nM |  | 
CC(CC(C)(C)c1ccc(C(F)(F)F)cc1)N1CCC(CCO)CC1 (stereo not shown) [Compound 2] | 4.67 |  | > 15000 nM | 0.6 nM | 0.9 nM | 9200 nM |  | 
CC(C)=CC(CC(C)(C)c1ccc(C)cc1)N1CCC2(CCOCC2)CC1 (stereo not shown) [Compound 97] | 5.78 | 8.7 min | 10000 nM |  |  |  |  | 
CC(C)=CC(CC(C)(C)c1ccc(C)cc1)NC1CCOCC1 (stereo not shown) [Compound 100] | 4.75 | 4.5 min | 13600 nM |  |  |  |  | 
COC1CCN(C(C=C(C)C)CC(C)(C)c2ccc(C(F)(F)F)cc2)CC1 (stereo not shown) [Compound 39] | 5.49 |  | 600 nM | 43 nM | 25 nM | 8200 nM |  | 
COC[C@H]1CCCN1C(C)CC(C)(C)c1ccc(Cl)cc1 (stereo partly shown) [Compound 84] | 4.67 |  | 250 nM | 1000 nM | 1000 nM | 3900 nM |  | 
